Reference: ChEMBL document CHEMBL1201862, “PubChem BioAssay data set” (2004)
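Dose response: 5 concentrations. Exposure: 48 h. Format: 96-well plates. Endpoint: linear interpolation; highest concentration if not reached. Abbreviation: GI50, concentration required for 50% inhibition of growth.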 Calls of active or inactive are those of the source. Cut-off read from the data, not from the text of the source: active = GI50 up to about 1.1 µM and inactive = higher.

Key:
Test in all cases: NCI anticancer screen, dose series, 48 h
IGROV-1 = system: IGROV-1
MDA-MB-231 = system: MDA-MB-231
HCT-15 = system: HCT-15
MDA-MB-435 = system: MDA-MB-435
MCF7 = system: MCF7
SR = system: SR
OVCAR-4 = system: OVCAR-4
NCI-H460 = system: NCI-H460
OVCAR-5 = system: OVCAR-5
HL-60 = system: HL-60
K562 = system: K562
CAKI-1 = system: CAKI-1
SK-MEL-5 = system: SK-MEL-5
A498 = system: A498
HCC 2998 = system: HCC 2998
UO-31 = system: UO-31
COLO 205 = system: COLO 205
T47D = system: T47D
RXF 393 = system: RXF 393
Malme-3M = system: Malme-3M

## CC1CCC2C(C)C(OC(=O)CCC(=O)O)OC3OC4(C)CCC1C32OO4 (stereo unspecified)
IGROV-1
  GI50: 10.4 µM (inactive)
MDA-MB-231
  GI50: > 100 µM (inactive)
HCT-15
  GI50: 0.388 µM
MDA-MB-435
  GI50: 1.51 µM (inactive)
MCF7
  GI50: 4.5 µM (inactive)
SR
  GI50: 0.519 µM (active)
OVCAR-4
  GI50: 7.01 µM (inactive)
NCI-H460
  GI50: 7.31 µM (inactive)
OVCAR-5
  GI50: 1.31 µM (inactive)
HL-60
  GI50: 0.427 µM (active)
K562
  GI50: 1.32 µM (inactive)
CAKI-1
  GI50: 12.1 µM (inactive)
SK-MEL-5
  GI50: 1.57 µM (inactive)
A498
  GI50: 27.2 µM (inactive)
HCC 2998
  GI50: 5.94 µM (inactive)
UO-31
  GI50: 1.33 µM (inactive)
COLO 205
  GI50: 1.42 µM (inactive)
T47D
  GI50: 0.828 µM (active)

## COc1cc(OC)c2c3c(OC)cc(OC)c4c(=O)c(O)c(C[C@@H](C)O)c(c5c(C[C@@H](C)O)c(O)c(=O)c1c25)c43
IGROV-1
  GI50: 16.6 µM (inactive)
MDA-MB-231
  GI50: 1.89 µM (inactive)
HCT-15
  GI50: 19.2 µM
MDA-MB-435
  GI50: 16.6 µM (inactive)
MCF7
  GI50: 21.2 µM (inactive)
OVCAR-4
  GI50: 30.5 µM (inactive)
RXF 393
  GI50: 22.4 µM (inactive)
NCI-H460
  GI50: 27.2 µM (inactive)
OVCAR-5
  GI50: 30.6 µM (inactive)
HL-60
  GI50: 11.3 µM (inactive)
CAKI-1
  GI50: 18.8 µM (inactive)
SK-MEL-5
  GI50: 14.2 µM (inactive)
A498
  GI50: 28.8 µM (inactive)
HCC 2998
  GI50: 16.3 µM (inactive)
UO-31
  GI50: 30.7 µM (inactive)
COLO 205
  GI50: 3.72 µM (inactive)
T47D
  GI50: 16.6 µM (inactive)

## Cc1ccc(N2C(=O)C=C(C3=C(O)C(=O)N(c4ccc(C)cc4)C3=O)C2=O)cc1
IGROV-1
  GI50: > 100 µM (inactive)
MDA-MB-231
  GI50: > 100 µM (inactive)
HCT-15
  GI50: > 100 µM
MDA-MB-435
  GI50: > 100 µM (inactive)
MCF7
  GI50: > 100 µM (inactive)
SR
  GI50: > 100 µM (inactive)
OVCAR-4
  GI50: > 100 µM (inactive)
NCI-H460
  GI50: > 100 µM (inactive)
OVCAR-5
  GI50: > 100 µM (inactive)
HL-60
  GI50: > 100 µM (inactive)
K562
  GI50: > 100 µM (inactive)
SK-MEL-5
  GI50: > 100 µM (inactive)
A498
  GI50: > 100 µM (inactive)
HCC 2998
  GI50: > 100 µM (inactive)
UO-31
  GI50: > 100 µM (inactive)
Malme-3M
  GI50: > 100 µM (inactive)
COLO 205
  GI50: > 100 µM (inactive)
T47D
  GI50: > 100 µM (inactive)

## O=C(C/N=C(\CN(c1ccccc1)c1ccccc1)Oc1c([N+](=O)[O-])cc([N+](=O)[O-])cc1[N+](=O)[O-])N1CCNCC1
IGROV-1
  GI50: 56.8 µM (inactive)
MDA-MB-231
  GI50: > 100 µM (inactive)
HCT-15
  GI50: > 100 µM
MDA-MB-435
  GI50: > 100 µM (inactive)
MCF7
  GI50: > 100 µM (inactive)
SR
  GI50: > 100 µM (inactive)
OVCAR-4
  GI50: > 100 µM (inactive)
RXF 393
  GI50: 69.8 µM (inactive)
NCI-H460
  GI50: > 100 µM (inactive)
OVCAR-5
  GI50: > 100 µM (inactive)
HL-60
  GI50: > 100 µM (inactive)
K562
  GI50: > 100 µM (inactive)
SK-MEL-5
  GI50: 28.7 µM (inactive)
HCC 2998
  GI50: > 100 µM (inactive)
Malme-3M
  GI50: > 100 µM (inactive)
COLO 205
  GI50: > 100 µM (inactive)
T47D
  GI50: > 100 µM (inactive)

## COP(=O)(/C=C/C(NC(=O)C(Cl)(Cl)Cl)c1ccccc1)OC (stereo unspecified)
IGROV-1
  GI50: > 100 µM (inactive)
MDA-MB-231
  GI50: > 100 µM (inactive)
HCT-15
  GI50: > 100 µM
MDA-MB-435
  GI50: > 100 µM (inactive)
MCF7
  GI50: > 100 µM (inactive)
OVCAR-4
  GI50: > 100 µM (inactive)
RXF 393
  GI50: > 100 µM (inactive)
NCI-H460
  GI50: > 100 µM (inactive)
OVCAR-5
  GI50: > 100 µM (inactive)
HL-60
  GI50: > 100 µM (inactive)
K562
  GI50: > 100 µM (inactive)
CAKI-1
  GI50: > 100 µM (inactive)
SK-MEL-5
  GI50: > 100 µM (inactive)
A498
  GI50: > 100 µM (inactive)
HCC 2998
  GI50: > 100 µM (inactive)
UO-31
  GI50: > 100 µM (inactive)
Malme-3M
  GI50: > 100 µM (inactive)
COLO 205
  GI50: > 100 µM (inactive)
T47D
  GI50: > 100 µM (inactive)

## O=C(NC1CCCCC1)c1nn[nH]c1Cl
IGROV-1
  GI50: > 100 µM (inactive)
MDA-MB-231
  GI50: > 100 µM (inactive)
HCT-15
  GI50: > 100 µM
MDA-MB-435
  GI50: > 100 µM (inactive)
MCF7
  GI50: > 100 µM (inactive)
OVCAR-4
  GI50: > 100 µM (inactive)
RXF 393
  GI50: > 100 µM (inactive)
NCI-H460
  GI50: > 100 µM (inactive)
OVCAR-5
  GI50: > 100 µM (inactive)
K562
  GI50: > 100 µM (inactive)
CAKI-1
  GI50: > 100 µM (inactive)
SK-MEL-5
  GI50: > 100 µM (inactive)
A498
  GI50: > 100 µM (inactive)
HCC 2998
  GI50: > 100 µM (inactive)
UO-31
  GI50: > 100 µM (inactive)
COLO 205
  GI50: > 100 µM (inactive)
T47D
  GI50: > 100 µM (inactive)

## NC12CC3C4CC5(N)CC3C(C1)C(C5)C4C2
IGROV-1
  GI50: > 100 µM (inactive)
MDA-MB-231
  GI50: > 100 µM (inactive)
HCT-15
  GI50: > 100 µM
MDA-MB-435
  GI50: > 100 µM (inactive)
MCF7
  GI50: > 100 µM (inactive)
OVCAR-4
  GI50: > 100 µM (inactive)
RXF 393
  GI50: > 100 µM (inactive)
NCI-H460
  GI50: > 100 µM (inactive)
OVCAR-5
  GI50: > 100 µM (inactive)
HL-60
  GI50: > 100 µM (inactive)
K562
  GI50: > 100 µM (inactive)
CAKI-1
  GI50: > 100 µM (inactive)
SK-MEL-5
  GI50: > 100 µM (inactive)
A498
  GI50: > 100 µM (inactive)
UO-31
  GI50: > 100 µM (inactive)
Malme-3M
  GI50: > 100 µM (inactive)
COLO 205
  GI50: > 100 µM (inactive)
T47D
  GI50: > 100 µM (inactive)

## Cc1c(O)c(C)c2c(C)cn(C(=O)C(C)(C)C)c2c1C
IGROV-1
  GI50: 21.6 µM (inactive)
MDA-MB-231
  GI50: 15.2 µM (inactive)
HCT-15
  GI50: 21.8 µM
MDA-MB-435
  GI50: 16.5 µM (inactive)
MCF7
  GI50: 3.27 µM (inactive)
OVCAR-4
  GI50: 12.6 µM (inactive)
RXF 393
  GI50: 12.4 µM (inactive)
NCI-H460
  GI50: 29.5 µM (inactive)
OVCAR-5
  GI50: 30.2 µM (inactive)
HL-60
  GI50: 18.7 µM (inactive)
K562
  GI50: 24 µM (inactive)
SK-MEL-5
  GI50: 14.7 µM (inactive)
A498
  GI50: 16.5 µM (inactive)
HCC 2998
  GI50: 31.3 µM (inactive)
UO-31
  GI50: 27.9 µM (inactive)
COLO 205
  GI50: 16.6 µM (inactive)
T47D
  GI50: 23.5 µM (inactive)
